Reference: US20230233589A1, “METHODS FOR TREATING CANCER USING A MODIFIED MONOSACCHARIDE COMPOUND” (THERAONCO, priority 2020, published 2023)

Test: Clinical follow-up of treated mice (body weight, water consumption)
Assay type: in vivo, NMRI nude mice
Method: 45 female NMRI nude mice, 6 weeks old.
Clinical follow-up: animals weight and tumor volume: 2-3 times a week.
Hela and Cal33 Cell Lines • cumulative dose of 20 mg (5 mg/mouse/inj repeated 1 day/2 for 8 days (4 times)) Panc-1 cell line • cumulative dose of […] (9 mg/mouse/injection repeated 1 day/2 for 21 days (11 times))
Hela Cell Lines • cumulative dose of 200 mg per mouse: 25 mg/day (8 mL/day @ 3.13 mg/mL) over 8 days
Cal33 Cell Lines • cumulative dose of 400 mg per mouse: 50 mg/day (8 mL/day @ 6.25 mg/mL) over 8 days
Panc-1 Cell Line • cumulative dose of 200 mg per mouse: 9.5 mg/day (8 mL/day @ 1.19 mg/mL) over 21 days

[N-]=[N+]=NC[C@H]1OC(O)[C@@H](O)[C@@H]1O (stereo partly drawn) [Ara-N3, 5-azido-5-deoxy-D-arabinofuranose]
water consumption of the mice (Ara-N3 in drinking water up to 6.25 mg/mL): did not alter the water consumption
body weight loss (treatment by intravenous injections): did not induce any body weight loss
body weight loss (treatment in drinking water): did not induce any body weight loss
